Results on one compound are retold here after patent US9861604B2, “Coriolus versicolor extracts, methods of isolating biologically-active compounds, and uses thereof” (priority 2012, dated 2018).

Common to all, as to type: cell-based, human
Data set [1] has as its system MMP-3. Put plainly: TNF-α induced MMP-3 mRNA level in T98G cells (TaqMan). The note with it: 10, 25 and 50 μg/ml 18 hr, then TNF-α 10 ng/ml 3 hr, FIG. 16. As for the experimental part: Glioblastoma (T98G, brain cells) cells were pretreated with different batches of ethanol extract or purified compounds of C. versicolor for 18 hr, and then treated with recombinant human TNF-α (10 ng/ml) for another 3 hr. Total RNA extraction was performed by TRIzol reagent (Invitrogen) according to the manufacturer's instructions. Total RNA was reverse transcribed by Superscript II reverse transcriptase (Invitrogen) with oligo (dT) primers. MMP-3 mRNA levels were analyzed by TaqMan Gene Expression Assays (Applied Biosystems).
Briefly, glioblastoma (T98G; brain cells) cells were pretreated with MPUB-EtOH at different concentrations (1, 10 and 50 ug/ml) for 18 hrs, and then treated with recombinant human TNFα (10 ng/ml) for 3 hrs. MMP-3 mRNA levels were analyzed by TaqMan Gene Expression Assays. […] A p value of <0.05 (*) was considered statistically significant.
In general terms: Quantitative PCR measures a nucleic acid by following its amplification.

The test system of data set [2] is MMP-3. Put plainly: TNF-α induced MMP-3 protein expression in T98G cells (ELISA). The following applies: 10, 25 and 50 μg/ml 18 hr, then TNF-α 10 ng/ml 24 hr, FIG. 17. The protocol:
T98G cells were pretreated with different batches of ethanol extract of C. versicolor for 18 hr, and then treated with recombinant human TNF-α (10 ng/ml) for another 24 hr. Protein levels of MMP-3 in the cell culture supernatants were analyzed by enzyme-linked immunosorbent assays (ELISA) using commercially available assay kits (R&D Systems).

The next data set has as its system T98G cells. Put plainly: MTT assay on T98G cells. The note with it: 10, 25 and 50 μg/ml, time course of 48 hr, FIG. 19. As for the experimental part:
T98G cells were incubated with different batches of ethanol extract or purified compounds of C. versicolor for 48 hr. After treatment, MTT (3-[4,5-dimethylthiazol-2-yl]-2,5-di-phenyltetrazolim bromide) (Sigma) was added to the medium at a final concentration of 1 mg/ml and followed by 2 hr incubation at 37° C. MTT formazan formed was then dissolved in 200 μl of isopropanol and the absorbance of the supernatant was measured at 570 nm using a 96-well microplate reader.

For data set [3], the system named is Glioblastoma (T98G) cells. Put plainly: Matrigel Invasion Chamber tumor cell invasion assay, T98G. The note with it: 25 μg/ml 18 hr, invasion 24 hr; FIG. 22. The protocol:
Cell invasiveness was studied using BD BioCoat™ Matrigel™ Invasion Chamber (BD Biosciences). T98G cells suspended in MEM containing 1% FBS, 1% penicillin-streptomycin and 1% sodium pyruvate were seeded overnight on top of gel in each chamber. Bicarbonate based culture medium was added into the bottom wells of the plate. After incubation, the cells were treated with ethanol extract of C. versicolor/Cove-1 for 18 hr. The chambers were then transferred to a new plate with each well containing MEM supplemented with 10% FBS. Cells were allowed to invade through the matrices at 37° C. for another 24 hr. After the invasion assay, invaded cells on the lower surface of the chamber were fixed with 100% methanol for 2 min, and stained with Crystal Violet. The number of invading cells was quantified by counting under a light microscope.
Specifically, the effect of C. versicolor on cancer cell invasiveness was studied using a Matrigel Invasion Chamber. […] The number of invading cells was quantified by counting under a light microscope.
Specifically, the effect of 9-KODE methyl ester on cell invasiveness was studied using Matrigel Invasion Chamber. Glioblastoma (T98G) cells were treated with 9-KODE methyl ester for 18 hr, and then the cells were allowed to invade through the matrices for another 24 hr. The number of invading cells was quantified by counting under a light microscope.

Take `CCCCC/C=C/C=C/C(=O)CCCCCCCC(=O)OC` [Cove-1, 9-oxo-10E,12E-octadecadienoic acid methyl ester]: the “TNF-α induced MMP-3 mRNA level” value with MMP-3 [1] was “suppressed TNF-α induced MMP-3 mRNA level”. For the same compound, in the data set on MMP-3 [2], the “TNF-α induced MMP-3 protein expression” value was “inhibited TNF-α induced MMP-3 protein expression”. The “metabolic activities of the cells (MTT)” value with T98G cells was “no significant differences in the metabolic activities”. Also, the “T98G cell invasiveness (number of invading cells)” value in data set [3] is given as “reduced the invasiveness of T98G significantly”.
